In patent US8653023B1, “Dual beneficial effect of dopamine enhancing and neuroprotective actions of PKC delta inhibitors for treatment of Parkinson's disease” (Iowa State University Research Foundation, Inc., priority 2006, dated 2014):

Columns and labels:
[1] = tested on: MPTP-treated C57 black mice; experiment: Locomotor activity of MPTP-treated mice (VersaMax); type: in vivo; settings: MPTP treatment alone, 1 day after treatment, 20-min session
Description: Behavioral data were collected using VersaMax Animal Activity Monitors (AccuScan Model RXYZCM-16, Columbus, Ohio). Each chamber was 40×40×30.5 cm^3, made of clear Plexiglas and covered with a Plexiglas lid with air-holes. Infrared monitoring sensors were located every 2.54 cm along the perimeter (16 infrared beams along each side) and 2.5 cm above the floor. Two additional sets of 16 sensors were located 8.0 cm above the floor on opposite sides. Data were collected and analyzed by a VersaMax Analyzer (AccuScan Model CDA-8, Columbus, Ohio) which in turn sent information to an IBM computer where it was stored for future analyses. Locomotor activity was presented as horizontal movement and vertical movement. All data are expressed as percent of the vehicle-treated control group (mean 6 SEM) and were obtained 1 day after MPTP or vehicle treatment in a 20-min test session.

[2] = tested on: MPTP-treated C57 black mice; experiment: TH+ neuron count in substantia nigra pars compacta of MPTP mice (stereology); type: in vivo; settings: MPTP 30 mg/kg for 5 continuous days
Protocol: (§1) Six to 8-week-old […] mice weighing 30 g were housed in standard conditions: constant temperature (22±1° C.), humidity (relative, 30%) and a 12-h light/dark cycle, and were allowed free access to food and water. The animals and protocol procedures were approved and supervised by the Committee on Animal Care (COAC) at the Iowa State University. Rottlerin was dissolved in 1% dimethyl sulfoxide (DMSO) and was administered intraperitoneally at various doses. An equal volume of DMSO was given to controls. Rottlerin and DMSO administrations were started 24 h before the injections of the MPTP and continued for 5 days in the MPTP model. In the chronic regimens of MPTP administration, MPTP in phosphate-buffered saline (PBS) was injected intraperitoneally at doses of 30 mg/kg, once a day. Mice were sacrificed 2 days after the MPTP injections, and the striata were dissected for catecholamine analysis. Additionally, rottlerin alone (0.3-20 mg/kg) was administered via intraperitoneally or orally and then brain tissues were subjected to neurochemical analyses (FIG. 8). The mesencephalons were fixed in 4% paraformaldehyde for 5 days for tyrosine hydroxylase (TH) immunostaining.
Brains removed following cervical dislocation were post-fixed in paraformaldehyde and used for TH immunolabelling and stereological studies. Fixed brains were cut into 30-μm sections and collected in cryoprotectant. Sections were rinsed in PBS at room temperature before immunostaining, then incubated with a anti-TH antibody as described (Thiruchelvam, McCormack et al. 2003; Thiruchelvam, Powers et al. 2004). The total number of TH^+ and TH Nissl-stained neurons in the SNpc were counted using the optical fractionator and previously described counting criteria (Thiruchelvam, McCormack et al. 2003; Thiruchelvam, Powers et al. 2004). After delineation of the region at low magnification (4× objective), every fourth section from the entire substantia nigra was sampled at higher magnification (100× objective) using StereoImager (Microbrightfield, Vt.).

[3] = tested on: MPTP-treated C57 black mice; experiment: MPTP-induced striatal dopamine depletion (HPLC-EC); type: in vivo; settings: MPTP 30 mg/kg for 5 days alone
Protocol: as §1
DA and DOPAC levels in brain striatal tissues were determined by high-performance liquid chromatography with electrochemical detection (HPLC-EC); samples were prepared as described previously (Kitazawa, Anantharam et al. 2001). Briefly, neurotransmitters were extracted from samples using 0.1M perchloric acid containing 0.05% Na2EDTA and 0.1% Na2S2O5. The extracts were filtered in 0.22 micron spin tubes and 20 μl of the samples was loaded for analysis. DA and DOPAC were separated isocratically by a reversed-phase column with a flow rate of 0.7 ml/min. An HPLC system (ESA Inc., Bedford, Mass.) with an ESA automatic sampler (model 542) was used for these experiments. The electrochemical detection (EC) system consisted of an ESA coulochem model 5100A with a microanalysis cell model 5014A and a guard cell model 5020 (ESA Inc., Bedford, Mass.). The DA and DOPAC levels were measured as pg/mg protein and expressed as percent of control.

[4] = tested on: primary mesencephalic dopaminergic neuronal cells; type: cell-based, mice; settings: 10 μM MPP+ for 48 hrs
Protocol: Primary mesencephalic neuronal cultures were prepared from the ventral mesencephalon of gestational 16-18-day-old mice embryos as described previously (Yang et al., 2004). Mesencephalic tissues were dissected and maintained in ice-cold Ca^2+-free HESS and then dissociated in HESS solution containing trypsin-EDTA (0.25%) for 20 min at 37° C. The dissociated cells were then plated at equal density (0.5×10^6 cells) in 30-mm-diameter tissue culture wells precoated with poly-D-lysine (1 mg/ml). Cultures were maintained in a chemically defined medium consisting of neurobasal medium fortified with B-27 supplements, L-glutamine (500 μM), penicillin (100 IU/ml), and streptomycin (100 μg/ml) (Life Technologies). The cells were maintained in a humidified CO2 incubator (5% CO2, 37° C.) for 24 hr and then treated with cytosine arabinoside (10 μM) for 24 hr to inhibit glial cell proliferation. Half of the culture medium was replaced every 2 days. Approximately 6-7-day-old cultures were used for experiments. […]
After treatment, the primary mesencephalic neurons were fixed with 4% paraformaldehyde and processed for immunocytotochemical staining. […] Then the coverslips containing stained cells were washed with PBS, mounted on a slide, and viewed under a Nikon inverted fluorescence microscope (Model TE-2000U); images were captured with a SPOT digital camera (Diagnostic Instruments, Sterling Heights, Mich.).
We used Metamorph software (Universal Imaging, Version 5.0) for measurement of TH^+ cells and neuronal processes in primary neurons from each coverslip. For measurement of TH cell count, the images were first thresholded, and then neuronal count and volume were measured using the Integrated Morphometry Analysis (IMA) function. The data were logged to an Excel spreadsheet with defined row and column positions and then analyzed. […] The data were exported to an Excel spreadsheet and analyzed. TH^+ neurons and their processes were counted in at least six individual cultures for each treatment. This method is a modified version of methodology recently used for quantification of neuronal processes.

PKCδ = PKCδ expression in siRNA-transfected N27 cells (Western blot); type: cell-based, rat; settings: vs siRNA-NS
Protocol: Small interfering RNAs (siRNAs) were prepared by an in vitro transcription method as described previously (Yang et al., 2004). Cy-3 labeling of siRNA and transfections were carried out as described in a recent publication (Yang et al., 2004). We used the siRNA PKCδ-4 and non-specific siRNA (siRNA-NS) for this study.
Cell and brain lysates containing equal amounts of protein were loaded in each lane and separated on a 10-12% SDS-PAGE gel as described previously (Kaul et al., 2003). After the separation, proteins were transferred to nitrocellulose membrane, and nonspecific binding sites were blocked by treating with 5% nonfat dry milk powder. The membranes were then treated with primary antibodies directed against PKCδ (rabbit polyclonal or mouse monoclonal, 1:2000 dilution), TH (rabbit polyclonal or mouse monoclonal, 1:1000), phospho TH-ser40 (rabbit polyclonal, 1:1000), phospho TH-ser31 TH (rabbit polyclonal, 1:1000), or PP2A (mouse monoclonal, 1:1000). The primary antibody treatments were followed by treatment with secondary HRP-conjugated anti-rabbit or anti-mouse IgG (1:2000) for 1 hr at RT. Secondary antibody-bound proteins were detected using Amersham's ECL chemiluminescence kit. […] Western blot images were captured with a Kodak 2000 MM imaging system and data were analyzed using 1D Kodak imaging analysis software.

N27 cells = experiment: Cellular DA and DOPAC levels in N27 cells (HPLC-EC); type: cell-based, rat; settings: siRNA-transfected N27 cells
Protocol: (§2) PC12 cells, differentiated N27 dopaminergic cells and primary mesencephalic neurons were exposed to 1-10 μM rottlerin for the duration of the experiment. DMSO (0.01%) was used as vehicle control. PKCδ-DN- and Lac Z-expressing N27 cells were only treated with 0.01% DMSO. […] Untreated or vehicle treated cells were used as control samples.
DA and DOPAC levels in PC12, N27 cells and in brain striatal tissues were determined by high-performance liquid chromatography with electrochemical detection (HPLC-EC); samples were prepared as described previously (Kitazawa et al., 2001). The DA and DOPAC levels were measured as pg/mg protein and expressed as percent of control.

[5] = tested on: tyrosine hydroxylase (TH); experiment: TH phosphorylation in N27 cells (Western blot, immunofluorescence); type: cell-based, rat
Protocol: as §2
Cell and brain lysates containing equal amounts of protein were loaded in each lane and separated on a 10-12% SDS-PAGE gel as described previously (Kaul et al., 2003). After the separation, proteins were transferred to nitrocellulose membrane, and nonspecific binding sites were blocked by treating with 5% nonfat dry milk powder. The membranes were then treated with primary antibodies directed against PKCδ (rabbit polyclonal or mouse monoclonal, 1:2000 dilution), TH (rabbit polyclonal or mouse monoclonal, 1:1000), phospho TH-ser40 (rabbit polyclonal, 1:1000), phospho TH-ser31 TH (rabbit polyclonal, 1:1000), or PP2A (mouse monoclonal, 1:1000). The primary antibody treatments were followed by treatment with secondary HRP-conjugated anti-rabbit or anti-mouse IgG (1:2000) for 1 hr at RT. Secondary antibody-bound proteins were detected using Amersham's ECL chemiluminescence kit. To confirm equal protein loading, blots were reprobed with a β-actin antibody (1:5000 dilution). Western blot images were captured with a Kodak 2000 MM imaging system and data were analyzed using 1D Kodak imaging analysis software.
Immunostaining of PKCδ, TH, Ser40 P-TH and Ser31 P-TH was performed in PC12, N27 and primary mesencephalic neurons. Cells were grown on poly-L-Lysine-coated glass cover slips. After treatment, the cells were fixed with 4% paraformaldehyde and processed for immunohistochemical staining. First, non-specific sites were blocked with 5% normal goat serum containing 0.4% BSA and 0.2% Triton-X 100 in PBS for 20 min. Cells were then incubated with antibodies directed against PKCδ (1:500 dilution), TH (1:500 dilution), and P-THSer40 (1:500 dilution) overnight at 4° C. followed by incubation with either Alexa 488-conjugated (green, 1:1000) or Cy3-conjugated (red, 1:1000) secondary antibody for 1 hr at RT. Secondary antibody treatments were followed by incubation with Hoechst 33342 (10 μg/ml) for 3 min at room temperature to stain the nucleus. Then the coverslips containing stained cells were washed with PBS, mounted on a slide, and viewed under a Nikon inverted fluorescence microscope (Model TE-2000U); images were captured with a SPOT digital camera (Diagnostic Instruments, Sterling Heights, Mich.).

dopaminergic N27 cells = settings: cited from earlier work
[6] = tested on: tyrosine hydroxylase (TH); experiment: TH activity (DOPA levels after NSD-1015) in N27 cells; type: cell-based, rat; settings: okadaic acid 2 μM for 2 hr
Protocol: Plasmid pPKCδ^K376R-V5 encodes the loss of function PKCδ-V5 epitope tagged mutant protein; K376R refers to the mutation of the lysine residue at position 376 to arginine in the catalytic site resulting in inactivation of the kinase. Plasmid pLacZ-V5 encodes the β-galactosidase protein alone with a V5-epitope and is used as a vector control. N27 cells stably expressing PKCδ^K376R-V5 (herein referred to as PKCδ-DN cells) and LacZ alone-expressing cells (LacZ cells) were cultured as described previously (Kitazawa et al., 2005). PKCδ-DN or LacZ expressing N27 cells were identified by immunostaining of the C-terminal V5 epitope on expressed proteins and were differentiated with cAMP analogs (e.g. dibutyral cAMP) prior to experiments. PKCδ-DN and LacZ were also transiently expressed in mouse primary mesencephalic neurons using an AMAXA® Nucleofector™ kit (AMAXA GmbH, Germany). As described above, primary mesencephalic neurons were prepared from the midbrain of 16-18-day-old mice embryos. After digestion with trypsin-EDTA-HBSS, the primary neurons were homogenously resuspended with transfection buffer provided with the kit to a final concentration of 4-5×10^6 neurons/100 μl and mixed with 1 μg plasmid DNA encoding either PKCδ-DN-V5 or LacZ-V5. […] Transfection efficiency was >75% as determined by immunostaining of V5-expression. […]

[7] = N27 cells, okadaic acid 2 μM for 2 hr

CN1CC=C(c2ccccc2)CC1 [MPTP, 1-methyl-4-phenyl-1,2,3,6-tetrahydropyridine]
locomotor activity compared to control group [1]: 55.17%
cell loss in SNpc as compared to controls [2]: 40%
dopamine level in striatum [3]: 14.49±3.77 pg DA/mg tissue weight
reduction of striatal dopamine versus vehicle [3]: −94%

C[n+]1ccc(-c2ccccc2)cc1 [MPP^+, 1-methyl-4-phenylpyridinium]
cell death and loss of neurites length of TH+ neurons [4]: 90%

PKCδ siRNA: siRNA PKCδ-4 directed against PKCδ; probably siRNA-d-4, SEQ ID NO:7 and 8 (chain 1 AACTGTTTGTGAATTTGCCTTCCTGTCTC; chain 2 AAAAGGCAAATTCACAAACAGCCTGTCTC; listed as DNA, chemistry not given here)
reduction in PKCδ expression (PKCδ): 55%
increase in DOPAC versus siRNA-NS (N27 cells): 71%
increase in the DA level versus siRNA-NS (N27 cells): 45%
TH-Ser40 (60 kDa band) densitometry, increase versus siRNA-NS ([5]; siRNA-transfected N27 cells): 2 fold
total TH levels versus siRNA-NS ([5]; siRNA-transfected N27 cells): similar

O=c1c(-c2ccc(O)cc2)coc2cc(O)cc(O)c12 [genistein]
H2O2 and MPP+-induced apoptotic cell death (genistein: also PKCδ cleavage, kinase activation) (dopaminergic N27 cells): dramatically inhibited

C=C1[C@@H](O)[C@@H]2O[C@]3(CC[C@H](/C=C/[C@@H](C)[C@@H]4CC(C)=C[C@@]5(O[C@H](C[C@@](C)(O)C(=O)O)CC[C@H]5O)O4)O3)CC[C@H]2O[C@@H]1[C@@H](O)C[C@H](C)[C@H]1O[C@@]2(CCCCO2)CC[C@H]1C [okadaic acid]
DOPA levels (TH activity) [6]: 1434±212.6 pg/10^6 cells/hr
baseline THser40 phosphorylation levels versus untreated cells [5, 7]: increase
levels of total TH versus untreated cells [5, 7]: similar
